Source: US6743363B2, “Method of bacteriostasis or disinfection for permselective membrane” (Toray Industries, Inc., priority 1998, dated 2004)
Where two headings read alike, the source gives them in different places.

Legend:
[1] = system: suspension of a solid deposit on a reverse osmosis membrane having been used in seawater desalination; test: Survival rate of cells in 3.5% artificial seawater: suspension of deposit on membrane; type: cell-based
Procedure: (§1) For comparison, 500 ppm of sodium bisulfite was added in place of sulfuric acid, and the data obtained are also shown in Table 1.

[2] = system: un-identified bacteria as separated from the solid deposit suspension; test: Survival rate of cells in 3.5% artificial seawater: cells from deposit on membrane; type: cell-based
Procedure: as §1

[3] = system: E. coli; test: Survival rate of cells in 3.5% artificial seawater: E. coli; type: cell-based, Escherichia coli
Procedure: as §1

[4] = system: Acid-resistant Bacteria 2
[5] = system: Acid-resistant Bacteria 1
[6] = system: acid-resistant bacteria
Procedure: Two membrane separation systems (systems A and B) each comprising a pre-treatment unit and a membrane separation unit having a reverse osmosis membrane module of polyamide were driven for seawater desalination through reverse osmosis filtration to produce fresh water. In these, a culture of the acid-resistant bacteria having been obtained in Reference Example 3 was added to the pre-treated seawater. […] In those conditions, the two systems were continuously driven for 30 days. […] While the systems were driven under the defined conditions, the number of living cells in the concentrate was counted.

[7] = system: Acid-resistant Bacteria 3
[8] = system: living cells in the concentrate; settings: Example 1: sulfuric acid pH 3.5 to 4, 30 min/day, running days 1 to 30
Text: The invention is described concretely with reference to the following Examples, which, however, are not intended to restrict the scope of the invention. In these Examples, the disinfecting effect is represented by the number of living microorganisms, the pressure loss in membrane modules and the consumption of sodium bisulfite (SBS).
Two membrane separation units each having a reverse osmosis membrane of polyamide were driven for seawater desalination through reverse osmosis filtration to produce fresh water. […] In that condition, the two units were continuously driven for 1 month. […] While the units were driven under the condition, the number of the living cells in the concentrate having passed through each unit was counted.

[9] = system: Escherichia coli K12 IFO 3301; settings: physiological saline 0.9%
[10] = system: marine bacteria; test: Colonies formed on agar medium for marine bacteria from treated seawater mixture; type: cell-based; settings: 200 ppm of sulfuric acid, pH 2.8, for 2 hours at 20° C.; 0.1 ml plated on agar pH 7; untreated pH 8.5 gave 200
Procedure: 1% of seawater was added to commercially-available, 3.5% artificial seawater having been subjected to pressure disinfection (at 120° C. for 15 minutes), and the pH of the resulting seawater mixture was measured to be 8.5. After having been kept at 20° C. for 2 hours, 0.1 ml of the seawater mixture was applied onto an agar medium for marine bacteria, of which the pH value had been controlled to be 7, and then kept warmed at 20° C.
The pH of the resulting seawater mixture was 2.8. After having been kept at 20° C. for 2 hours, 0.1 ml of the seawater mixture was applied onto an agar medium for marine bacteria, of which the pH value had been controlled to be 7.

[11] = 500 ppm, 2.5 hr, pH 5.9, 20° C.
[12] = 100 ppm, 2.5 hr, pH 5.1, 20° C.
[13] = 120 ppm, 0.5 hr, pH 4.0, 20° C.
[14] = 120 ppm, 2.5 hr, pH 4.0, 20° C.
[15] = 150 ppm, 0.5 hr, pH 3.3, 20° C.
[16] = 200 ppm, 0.5 hr, pH 2.9, 20° C.
[17] = 300 ppm, 0.5 hr, pH 2.5, 20° C.
[18] = 250 ppm, 0.5 hr, pH 2.6, 20° C.
[19] = 250 ppm, 2.5 hr, pH 2.6, 20° C.
[20] = 300 ppm, 0.5 hr, pH 2.6, 20° C.

For `O=S([O-])O.[Na+]` [Sodium Bisulfite, sodium bisulfite, reference compound], the “Survival Rate (%) Suspension of Deposit on Membrane” value (from here on “Survival Rate (%) Suspension”) [1, 11] was 90%, the “Survival Rate (%) Cells from Deposit on Membrane” value (shortened to “Survival Rate (%) Cells”) [2, 11] was 86% and the “Survival Rate (%) E. coli” value [3, 11] was 98%.
With `O=S(=O)(O)O` [Sulfuric Acid, sulfuric acid] the “Survival Rate (%) Suspension” value [1, 12] was 60%, the “Survival Rate (%) Suspension” value [1, 13] was 37% and the “Survival Rate (%) Suspension” value [1, 14] was 15%. The “Survival Rate (%) Suspension” value [1, 15] was under 1%, the “Survival Rate (%) Suspension” value [1, 16] was under 1% and the “Survival Rate (%) Suspension” value [1, 17] was under 1%. The “Survival Rate (%) Acid-resistant Bacteria 2” value ([4]; 200 ppm, 1 hr, pH 2.8, 20° C.) was 22%, the “Survival Rate (%) Acid-resistant Bacteria 2” value [4, 18] was 33% and the “Survival Rate (%) Acid-resistant Bacteria 2” value ([4]; 250 ppm, 1 hr, pH 2.6, 20° C.) was 2%. The “Survival Rate (%) Acid-resistant Bacteria 2” value [4, 19] was under 1%, the “Survival Rate (%) Acid-resistant Bacteria 2” value [4, 20] was 1% and the “Survival Rate (%) Acid-resistant Bacteria 2” value ([4]; 300 ppm, 1 hr, pH 2.4, 20° C.) was under 1%. For the same compound, the “Survival Rate (%) Acid-resistant Bacteria 1” value ([5]; 200 ppm, 1 hr, pH 2.8, 20° C.) was 50%, the “Survival Rate (%) Acid-resistant Bacteria 1” value [5, 18] was 17% and the “Survival Rate (%) Acid-resistant Bacteria 1” value ([5]; 250 ppm, 1 hr, pH 2.6, 20° C.) was under 1%. The “Survival Rate (%) Acid-resistant Bacteria 1” value [5, 19] was under 1%, the “Survival Rate (%) Acid-resistant Bacteria 1” value [5, 20] was 8% and the “Survival Rate (%) Acid-resistant Bacteria 1” value ([5]; 300 ppm, 1 hr, pH 2.4, 20° C.) was under 1%. For the same compound, the “Ratio of Living Microbes in Concentrate” value ([6]; pH 2.6, 30 minutes a day) was under 1, the “Ratio of Living Microbes in Concentrate” value ([6]; pH 3.5 to 4.0, 30 minutes a day) was 100 and the “Ratio of Living Microbes in Concentrate” value ([6]; pH 3.5 to 4.0, 30 minutes a day, plus pH 2.6, 30 minutes a day (once at intervals of 5 days)) was under 1. For the same compound, the “Survival Rate (%) Cells” value [2, 12] was 81%, the “Survival Rate (%) Cells” value [2, 15] was under 1% and the “Survival Rate (%) Cells” value [2, 16] was under 1%. For the same compound, the “Survival Rate (%) Cells” value [2, 17] was under 1%, the “Survival Rate (%) Acid-resistant Bacteria 3” value ([7]; 200 ppm, 1 hr, pH 2.8, 20° C.) was under 1% and the “Survival Rate (%) Acid-resistant Bacteria 3” value [7, 18] was 1%. The “Survival Rate (%) Acid-resistant Bacteria 3” value ([7]; 250 ppm, 1 hr, pH 2.6, 20° C.) was under 1%, the “Survival Rate (%) Acid-resistant Bacteria 3” value [7, 19] was under 1% and the “Survival Rate (%) Acid-resistant Bacteria 3” value [7, 20] was under 1%. For the same compound, the “Survival Rate (%) Acid-resistant Bacteria 3” value ([7]; 300 ppm, 1 hr, pH 2.4, 20° C.) was under 1%, the “Number of Living Cells in the concentrate, compared with the unit not subjected to the sulfuric acid treatment” value [8] was  1/100 or less and the “Number of Living Cells in the concentrate, compared with the unit not subjected to the sulfuric acid treatment” value ([8]; listed as sulfuric acid) was 1/100. For the same compound, the “Survival Rate (%) E. coli” value [3, 12] was 107%, the “Survival Rate (%) E. coli” value [3, 13] was 105% and the “Survival Rate (%) E. coli” value [3, 14] was 93%. The “Survival Rate (%) E. coli” value [3, 15] was under 1%, the “Survival Rate (%) E. coli” value [3, 16] was under 1% and the “Survival Rate (%) E. coli” value [3, 17] was under 1%. For the same compound, the “survival rate of the cells” value ([9]; 10 ppm of sulfuric acid, pH 4.7, 20° C., 2.5 hours) was at least 90%, the “survival rate of the cells” value ([9]; 50 ppm of sulfuric acid, pH 3.2, 20° C., 0.5 hours) was 90% and the “survival rate of the cells” value ([9]; 50 ppm of sulfuric acid, pH 3.2, 20° C., 1 hour) was 20%. The “survival rate of the cells” value ([9]; 50 ppm of sulfuric acid, pH 3.2, 20° C., 2.5 hours) was at most 1%, the “survival rate of the cells” value ([9]; 100 ppm of sulfuric acid, 20° C., 0.5 hours) was at most 1% and the “Number of Colonies Formed” value [10] was 3.
